# What was measured:
# HSA [1] = target: T1, HSA (Homo sapiens, UniProt P02768); assay: percent recovery from HSA with the 96-well ACCUPRO DCC device; assay type: in vitro ADME
# Method: Chemical Analysis. […] For a given sample, the peak areas of the particular drug and its internal standard are measured and a ratio of these two values is determined. The peak area ratio (PAR) of the (+) DCC-extracted sample is divided by its corresponding (−) DCC extracted sample PAR to determine a percent recovery value. This recovery value is not a % HSA bound value.
# Preparation of DCC plate. Prepare a DCC filter plate with 5 mg and 10 mg bed sizes as described in Example 1 and 3.
# Set-Up of Incubation Study.
# HSA [2] = target: T1, HSA; details: 1 μM drug + 1 μM DS in HSA; 10 mg DCC bed
# Method: Set-Up of Incubation Study. […] Allow samples to sit at room temperature for one hour.
# DCC Extraction Procedure; Protein Precipitation Procedure; Final Sample Preparation. Performed as described in Example 1 and 3.
# Chemical Analysis. The analysis of DS and the internal standard is conducted with liquid chromatography coupled to mass spectrometry with electrospray ionization. For a given sample, the peak area of the DS and the internal standard are measured and a ratio (PAR) of these two values is determined.
# AAG = details: reported; cited from earlier work
# [3] = reported; cited from earlier work
# T1 sequence (P02768 25-609): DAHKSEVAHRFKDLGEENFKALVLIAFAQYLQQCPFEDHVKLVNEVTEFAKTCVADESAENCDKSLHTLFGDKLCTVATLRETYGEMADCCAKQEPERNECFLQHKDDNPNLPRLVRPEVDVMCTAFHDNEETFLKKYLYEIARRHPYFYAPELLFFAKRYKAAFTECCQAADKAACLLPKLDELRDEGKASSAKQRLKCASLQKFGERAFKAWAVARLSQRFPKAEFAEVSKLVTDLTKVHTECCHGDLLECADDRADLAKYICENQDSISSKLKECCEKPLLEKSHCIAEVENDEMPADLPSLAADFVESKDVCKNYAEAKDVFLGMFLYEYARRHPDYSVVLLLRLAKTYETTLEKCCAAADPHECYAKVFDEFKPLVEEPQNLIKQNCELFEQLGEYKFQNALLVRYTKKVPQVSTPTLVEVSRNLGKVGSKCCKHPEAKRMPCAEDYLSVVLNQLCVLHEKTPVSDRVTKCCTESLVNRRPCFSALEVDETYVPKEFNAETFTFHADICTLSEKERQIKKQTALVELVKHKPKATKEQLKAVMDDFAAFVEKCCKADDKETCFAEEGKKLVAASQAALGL
compound,measurement,setting,value
O=C(c1ccccc1)c1ccc2n1CCC2C(=O)O (centres unmarked) [Ketorolac],percent recovery (relative ranking),"HSA [1]; HSA, naproxen versus ketorolac",lower percent recovery
same,percent recovery from HSA,"HSA [1]; drug at 1 μM, 5 mg and 10 mg DCC bed, compared with the usual concentrations (217 μM and 0.5 μM)",comparable to values obtained above
same,DS (dansylsarcosine) PAR in final sample preparation,HSA [2],higher PAR
CN(C)CCCN1c2ccccc2Sc2ccc(Cl)cc21 [Chlorpromazine],affinity to AAG / HSA,AAG,high affinity to AAG and not HSA
same,plasma bound,[3],95-98%

# From US20060019410A1, “Apparatus, kits and methods for evaluating binding interactions, for detecting and quantifying binding molecules, and for sample preparation” (Qualyst, Inc., priority 2004, published 2006)
